Converted amounts (≈) assume the structure as drawn.
How the values were obtained:
[1] = target: Methionine aminopeptidase 1 (Homo sapiens, UniProt P53582)
Description: Inhibition of N-terminal MetAP1 (unknown origin)

in vivo [2] = conditions: mouse, faeces, iv
Description: Drug recovery in iv dosed mouse feces

[3] = Drug recovery in monkey at 0.2 mg/kg, iv measured up to 72 hrs; assay type: ADME, organism-based, Macaca mulatta; conditions: rhesus monkey, in vivo
in vitro [4] = conditions: mouse, plasma
Description: Protein binding in mouse plasma assessed as unbound fraction

physchem = conditions: PBS buffer
Description: Solubility of compound in PBS buffer

in vitro [5] = conditions: human, plasma
Description: Protein binding in human plasma assessed as unbound fraction

[6] = mouse, in vivo, iv, 1 mg/kg
in vivo [7] = conditions: mouse, iv
Description: Half life in iv dosed mouse

[8] = Drug recovery in dog at 0.2 mg/kg, iv measured up to 72 hrs; assay type: ADME, organism-based, Canis lupus familiaris; conditions: in vivo

Description for CAKI-1: Antitumour activity against human Caki1 cells xenografted in nude CD-1 mouse assessed as tumor growth at 25 mg/kg, po BID for 36 days relative to control
Description for U-87 MG: Antitumour activity against human U87MG cells xenografted in nude CD-1 mouse assessed as tumor growth at 20 mg/kg, po administered daily for 14 days relative to control

Row | Structure (SMILES) | IC50 [1] | dose excreted (in vivo [2]) | also measured
1 | O=C1CCc2cc(N3CC[C@](O)(C(=O)NCc4cc(F)cc(F)c4)C3=O)ccc2N1 | > 10 µM | – | –
2 | O=C(NCc1cc(F)cc(Cl)c1)[C@@]1(O)CCN(c2ccc3[nH]ccc3c2)C1=O | > 10 µM | < 1% | –
3 | O=C1CCc2cc(N3CC[C@](O)(C(=O)NCc4cc(F)ccc4Cl)C3=O)ccc2N1 | > 10 µM | – | –
4 | O=C1CCc2cc(N3CC[C@](O)(C(=O)NCc4c(F)cccc4Cl)C3=O)ccc2N1 | > 10 µM | – | –
5 | O=C1CCc2cc(N3CC[C@](O)(C(=O)NCc4cc(F)cc(Cl)c4)C3=O)ccc2N1 | > 10 µM | 23% | Drug recovery [3]: Active; fraction unbound (in vitro [4]): 0.017; solubility (physchem): 90 µg/mL (≈ 208 µM); fraction unbound (in vitro [5]): 0.023; AUC [6]: 19 ng·h/mL; half-life (in vivo [7]): 3 h; Drug recovery [8]: Active; T/C (U-87 MG): 45%
6 | O=C1CCc2cc(N3CC[C@](O)(C(=O)NCc4cccc(F)c4F)C3=O)ccc2N1 | > 10 µM | – | –
7 | O=C1CCc2cc(N3CC[C@](O)(C(=O)NCc4cccc(Cl)c4F)C3=O)ccc2N1 | > 10 µM | – | –
8 | O=C1CCc2cc(N3CC[C@](O)(C(=O)NCc4cc(F)cc(Cl)c4F)C3=O)ccc2N1 | > 10 µM | – | –
9 | O=C1CCc2cc(N3CC[C@](O)(C(=O)NCc4cc(F)cc(F)c4F)C3=O)ccc2N1 | > 10 µM | – | –
10 | Cc1cc2cc(N3CC[C@](O)(C(=O)NCc4cc(F)cc(Cl)c4)C3=O)ccc2[nH]1 | > 10 µM | – | –
11 | O=C1CCc2cc(N3CC[C@](O)(C(=O)NCc4c(F)cccc4F)C3=O)ccc2N1 | > 10 µM | – | –
12 | O=C1CCc2cc(N3CC[C@](O)(C(=O)NCc4c(F)ccc(F)c4F)C3=O)ccc2N1 | > 10 µM | – | –
13 | O=C(NCc1cc(F)cc(Cl)c1)[C@@]1(O)CCN(c2cnc3[nH]cc(Cl)c3c2)C1=O | > 10 µM | 1.5% | –
14 | O=C1CCc2cc(N3CC[C@](O)(C(=O)NCc4ccc(F)c(Cl)c4F)C3=O)ccc2N1 | > 10 µM | – | –
15 | O=C(NCc1cc(F)cc(F)c1)[C@@]1(O)CCN(c2cnc3[nH]cc(Cl)c3c2)C1=O | > 10 µM | 2.7% | –

Now from value to compound, other results behind:

Row | IC50 [1] | dose excreted (in vivo [2]) | Structure (SMILES) | also measured
16 | > 10 µM | – | O=C1CCc2cc(N3CC[C@](O)(C(=O)NCc4cc(F)cc(Cl)c4)C3=O)cc(F)c2N1 | –
17 | > 10 µM | – | O=C1CCc2cc(N3CC[C@](O)(C(=O)NCc4cc(F)c(F)c(F)c4)C3=O)ccc2N1 | –
18 | > 10 µM | – | CCNC(=O)c1cc2cc(N3CC[C@](O)(C(=O)NCc4cc(F)cc(Cl)c4)C3=O)ccc2[nH]1 | –
19 | > 10 µM | – | CS(=O)(=O)Nc1cccc(N2CC[C@](O)(C(=O)NCc3cc(F)cc(Cl)c3)C2=O)c1 | –
20 | > 10 µM | 2.3% | O=C(NCc1cc(F)cc(Cl)c1)[C@@]1(O)CCN(c2cnc3[nH]ccc3c2)C1=O | T/C (U-87 MG): 45%
21 | > 10 µM | < 1% | O=C(NCc1cc(F)cc(F)c1)[C@@]1(O)CCN(c2ccc3[nH]ncc3c2)C1=O | –
22 | > 10 µM | < 1% | O=C(NCc1cc(F)cc(F)c1)[C@@]1(O)CCN(c2cnc3[nH]ccc3c2)C1=O | T/C (CAKI-1): 39%
23 | > 10 µM | – | NCCCNC(=O)c1cc2cc(N3CC[C@](O)(C(=O)NCc4cc(F)cc(Cl)c4)C3=O)ccc2[nH]1 | –
24 | > 10 µM | – | CN1C(=O)CCc2cc(N3CC[C@](O)(C(=O)NCc4cc(F)cc(Cl)c4)C3=O)ccc21 | –
25 | > 10 µM | < 1% | O=C(NCc1cc(F)cc(Cl)c1)[C@@]1(O)CCN(c2ccc3[nH]ncc3c2)C1=O | –
